Drawing on the SangsterLogP compilation, this text covers logP for 39 compounds.

The structures appear in SMILES notation.

What is called logP is a log measure of how a compound divides between an organic and an aqueous phase. A low value points to lower lipophilicity. `COCc1nc(-c2ccc(OC[C@@H](O)CNCCc3ccc(OC)c(OC)c3)cc2)[nH]c1C` registered a logP of 1.07.
For `COc1ccc(CCNC[C@H](O)COc2ccc(-c3ncc(Cl)[nH]3)cc2)cc1OC`, the lipophilicity (logP) is 2.4.
Regarding `O=C(NCCNCC(O)COc1ccc(-c2ncc[nH]2)cc1)Nc1ccccc1` (centres undefined), the logP is 1.19.
The same measure for `COc1ccc(CCNCC(O)COc2ccc(-c3ncc(C)[nH]3)cc2OC)cc1OC` (centres undefined): 1.89; for `CC(C)NCC(O)COc1ccc(-c2ncc[nH]2)cc1` (centres undefined): 0.65; for `COc1ccc(CCNC[C@H](O)COc2ccc(Cc3ncc(-c4cccs4)[nH]3)cc2)cc1OC`: 2.28.
`CCCNCC(O)COc1ccc(-c2ncc(-c3cccs3)[nH]2)cc1` (centres undefined) gave a lipophilicity (logP) of 2.84.
In turn, `COc1ccc(CCNC[C@H](O)COc2ccc(-c3ncc(CO)[nH]3)cc2)cc1OC` gave a logP of 0.63.
The compound `COc1ccc(CCNC[C@H](O)COc2ccc(CCc3ncc(-c4cccs4)[nH]3)cc2)cc1OC` registered a logP of 2.08.
The compound `CCOCCNCC(O)COc1ccc(-c2ncc(-c3cccs3)[nH]2)cc1` (centres undefined) had a lipophilicity (logP) of 2.25.
`COc1ccc(CCNC[C@H](O)COc2ccc(Cc3ncc(C(C)=O)[nH]3)cc2)cc1OC`: the log partition coefficient (logP) is 0.87.
The compound `COc1ccc(CCNCC(O)COc2ccc(-c3nccn3C)cc2)cc1OC` (centres undefined) registered a logP of 2.08.
The compound `OC(CNCCc1ccncc1)COc1ccc(-c2ncc(-c3cccs3)[nH]2)cc1` (centres undefined) yielded a logP of 2.25.
`CC(C)NC[C@H](O)COc1ccc(-c2ncc(C(C)C)[nH]2)cc1` yielded a lipophilicity (logP) of 2.23.
Take `COc1ccc(CCNC[C@H](O)COc2ccc(-c3nc(Cl)c(C)[nH]3)cc2)cc1OC`: the lipophilicity (logP) worked out at 2.35.
`COCc1cnc(-c2ccc(OC[C@@H](O)CNCCc3ccc(OC)c(OC)c3)cc2)[nH]1` showed a logP of 1.71.
For `COc1ccc(CCNC[C@H](O)COc2ccc(-c3ncc(C(C)C)[nH]3)cc2)cc1OC` the value was 2.49; for `COc1ccc(CCNC[C@H](O)COc2ccc(-c3nc(Br)c(C)[nH]3)cc2)cc1OC`, 2.69; for `COc1ccc(CCNC[C@H](O)COc2ccc(-c3ncc(C(N)=O)[nH]3)cc2)cc1OC`, 0.99.
Compound `COc1ccc(CCNC[C@H](O)COc2ccc(-c3ncc(C(C)=O)[nH]3)cc2)cc1OC` returned a lipophilicity (logP) of 1.23.
`CC(C)(C)NC[C@H](O)COc1ccc(Cc2ncc(-c3cccs3)[nH]2)cc1` yielded a log partition coefficient (logP) of 2.57.
The compound `COc1ccc(CCNCC(O)COc2ccc(-c3ncco3)cc2)cc1OC` (centres undefined) displayed a lipophilicity (logP) of 2.6.
The compound `CC(C)NC[C@H](O)COc1ccc(Cc2ncc(Br)[nH]2)cc1` displayed a lipophilicity (logP) of 1.35.
The same measure for `CCCCNC(=O)NCCNCC(O)COc1ccc(-c2ncc(C)[nH]2)cc1` (centres undefined): 1.24; for `COc1ccc(CCNC[C@H](O)COc2ccc(-c3ncc(Br)[nH]3)cc2Cl)cc1OC`: 2.73; for `COCCc1cnc(-c2ccc(OC[C@@H](O)CNCCc3ccc(OC)c(OC)c3)cc2)[nH]1`: 2.06.
For the compound `COc1ccc(CCNC[C@H](O)COc2ccc(Cc3ncc(C)[nH]3)cc2)cc1OC`, the log partition coefficient (logP) was 1.28.
As for `COc1ccc(CCNC[C@H](O)COc2ccc(-c3ncc(-c4cccs4)[nH]3)cc2C)cc1OC`, the logP came to 3.32.
In the case of `COc1ccc(CCNCC(O)COc2ccc(-c3ncc(C)[nH]3)cc2Br)cc1OC` (centres undefined), the log partition coefficient (logP) stood at 2.3.
The compound `COc1ccc(CCNCC(O)COc2ccc(OCc3ncc[nH]3)cc2)cc1OC` (centres undefined) showed a logP of 1.21.
For the compound `CCOC(=O)c1cnc(-c2ccc(OC[C@@H](O)CNCCc3ccc(OC)c(OC)c3)cc2)[nH]1`, the lipophilicity (logP) stood at 2.3.
On to `COc1ccc(CCNCC(O)COc2ccc(-c3ncc(C)n3C)cc2)cc1OC` (centres undefined), for which the logP came out at 1.72.
In the case of `COc1ccc(CCNC[C@H](O)COc2ccc(-c3ncc(C(C)(C)C)[nH]3)cc2)cc1OC`, the lipophilicity (logP) was determined as 2.86.
`CC(C)NCC(O)COc1ccc(-c2ncc(-c3cccs3)[nH]2)cc1` (centres undefined) had a logP of 2.18.
Take `Cc1cnc(Cc2ccc(OC[C@@H](O)CNC(C)(C)C)cc2)[nH]1`: the log partition coefficient (logP) stood at 1.11.
The same measure for `COc1ccc(CCNC[C@H](O)COc2ccc(-c3nc(C(C)=O)c(C)[nH]3)cc2)cc1OC`: 2.14.
With `CCOCc1cnc(-c2ccc(OC[C@@H](O)CNCCc3ccc(OC)c(OC)c3)cc2)[nH]1`, the log partition coefficient (logP) amounted to 0.84.
Compound `COc1ccc(CCNC[C@H](O)COc2ccc(COCc3ncc[nH]3)cc2)cc1OC` registered a logP of 1.29.
`COc1ccc(CCNC[C@H](O)COc2ccc(-c3ncc(Br)[nH]3)cc2)cc1OC` yielded a lipophilicity (logP) of 1.9.
